Data: patent US11685732B2, “MYST family histone acetyltransferase inhibitors” (Epizyme, Inc., priority 2017, dated 2023)
Read-outs that look alike come from different tables or passages of the source.

How the values were obtained:
KAT-8 = KAT-8 (Homo sapiens (Human), UniProt Q9H7Z6); experiment: KAT-8 biochemical inhibition assay (SAMDI mass spectrometry)
Experimental: (§1) KAT-8. Enzyme assay buffer was 50 mM Tris pH 8.0, 0.002% Tween20, 0.005% bovine skin gelatin, and 1 mM dithiothreitol (DTT). For determination of IC50 values, compounds were serially diluted with 2% (v/v) DMSO in the final reaction, pre-incubating each dilution of each compound with 40 μL of assay buffer containing KAT-8 enzyme (12.5 nM final concentration). 10 μL of assay buffer containing 1 μM peptide substrate and 5 μM acetyl coenzyme A (final concentrations) was added. Reactions (50 μL total) were then carried out at 25° C. for 90 minutes. Reactions were terminated by the addition of 0.5% formic acid (final concentration), and a sample of each reaction was analyzed by SAMDI Tech, Inc. (Chicago, Ill.) using self-assembled monolayer desorption/ionization time-of-flight mass spectrometry (Mrksich, M. (2008) Mass spectrometry of self-assembled monolayers: a new tool for molecular surface science. ACS Nano 2, 7-18).

KAT-5 = KAT-5 (Homo sapiens (Human), UniProt Q92993); experiment: KAT-5 biochemical inhibition assay (SAMDI mass spectrometry)
Experimental: as §1, with “KAT-5. Enzyme” for “KAT-8. Enzyme”, “containing KAT-5” for “containing KAT-8”, “enzyme (9” for “enzyme (12.5”, “and 0.5” for “and 5”

KAT-6A = KAT-6A (Homo sapiens (Human), UniProt Q92794); experiment: KAT-6A biochemical inhibition assay (SAMDI mass spectrometry)
Experimental: as §1, with “KAT-6A. Enzyme” for “KAT-8. Enzyme”, “containing KAT-6A” for “containing KAT-8”, “and 1” for “and 5”

KAT-7 = KAT-7 (Homo sapiens (Human), UniProt O95251); experiment: KAT-7 biochemical inhibition assay (SAMDI mass spectrometry)
Experimental: as §1, with “KAT-7. Enzyme” for “KAT-8. Enzyme”, “containing KAT-7” for “containing KAT-8”, “enzyme (6” for “enzyme (12.5”, “and 2” for “and 5”, “for 120” for “for 90”

KAT-7, sequence (O95251 other isoform, or with tags, fused parts or gaps): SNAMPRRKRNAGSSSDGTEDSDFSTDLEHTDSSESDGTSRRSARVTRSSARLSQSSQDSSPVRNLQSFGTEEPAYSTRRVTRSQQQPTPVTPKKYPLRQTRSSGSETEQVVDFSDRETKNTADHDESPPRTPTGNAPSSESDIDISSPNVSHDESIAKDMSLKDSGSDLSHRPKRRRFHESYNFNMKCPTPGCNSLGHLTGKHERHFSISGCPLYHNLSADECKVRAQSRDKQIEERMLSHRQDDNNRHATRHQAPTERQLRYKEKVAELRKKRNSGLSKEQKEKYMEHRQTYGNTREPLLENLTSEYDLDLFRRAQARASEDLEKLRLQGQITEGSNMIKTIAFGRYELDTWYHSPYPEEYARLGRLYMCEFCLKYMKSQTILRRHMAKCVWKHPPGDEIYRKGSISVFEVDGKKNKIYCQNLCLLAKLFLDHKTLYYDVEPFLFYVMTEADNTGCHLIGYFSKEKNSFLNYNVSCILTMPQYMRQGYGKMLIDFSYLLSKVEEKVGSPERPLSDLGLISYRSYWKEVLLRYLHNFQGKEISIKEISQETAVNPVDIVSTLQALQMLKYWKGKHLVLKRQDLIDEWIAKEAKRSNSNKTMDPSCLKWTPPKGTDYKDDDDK
KAT-6A, sequence (Q92794 other isoform, or with tags, fused parts or gaps): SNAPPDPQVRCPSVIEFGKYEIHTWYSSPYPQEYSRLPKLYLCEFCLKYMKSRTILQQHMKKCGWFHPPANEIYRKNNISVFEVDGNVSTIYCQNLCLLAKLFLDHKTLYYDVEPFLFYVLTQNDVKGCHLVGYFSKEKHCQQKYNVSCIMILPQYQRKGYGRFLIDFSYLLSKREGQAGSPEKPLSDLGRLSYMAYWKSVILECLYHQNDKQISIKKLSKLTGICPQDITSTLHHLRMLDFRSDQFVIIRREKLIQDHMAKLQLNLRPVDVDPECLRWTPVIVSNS
KAT-8, sequence (Q9H7Z6 other isoform, or with tags, fused parts or gaps): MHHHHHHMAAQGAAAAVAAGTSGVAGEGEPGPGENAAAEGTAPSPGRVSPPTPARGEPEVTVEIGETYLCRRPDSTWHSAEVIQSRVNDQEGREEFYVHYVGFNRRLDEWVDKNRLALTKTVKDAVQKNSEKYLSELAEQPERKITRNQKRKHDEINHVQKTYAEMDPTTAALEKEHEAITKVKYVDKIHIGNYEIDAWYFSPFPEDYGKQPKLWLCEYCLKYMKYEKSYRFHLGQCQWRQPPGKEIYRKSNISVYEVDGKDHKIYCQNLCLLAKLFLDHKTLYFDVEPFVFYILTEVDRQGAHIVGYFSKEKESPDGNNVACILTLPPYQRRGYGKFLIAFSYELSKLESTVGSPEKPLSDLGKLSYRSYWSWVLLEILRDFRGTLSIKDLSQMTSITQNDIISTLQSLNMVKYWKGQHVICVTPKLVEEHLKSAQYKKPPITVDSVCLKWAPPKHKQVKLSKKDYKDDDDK
KAT-5, sequence (Q92993 other isoform, or with tags, fused parts or gaps): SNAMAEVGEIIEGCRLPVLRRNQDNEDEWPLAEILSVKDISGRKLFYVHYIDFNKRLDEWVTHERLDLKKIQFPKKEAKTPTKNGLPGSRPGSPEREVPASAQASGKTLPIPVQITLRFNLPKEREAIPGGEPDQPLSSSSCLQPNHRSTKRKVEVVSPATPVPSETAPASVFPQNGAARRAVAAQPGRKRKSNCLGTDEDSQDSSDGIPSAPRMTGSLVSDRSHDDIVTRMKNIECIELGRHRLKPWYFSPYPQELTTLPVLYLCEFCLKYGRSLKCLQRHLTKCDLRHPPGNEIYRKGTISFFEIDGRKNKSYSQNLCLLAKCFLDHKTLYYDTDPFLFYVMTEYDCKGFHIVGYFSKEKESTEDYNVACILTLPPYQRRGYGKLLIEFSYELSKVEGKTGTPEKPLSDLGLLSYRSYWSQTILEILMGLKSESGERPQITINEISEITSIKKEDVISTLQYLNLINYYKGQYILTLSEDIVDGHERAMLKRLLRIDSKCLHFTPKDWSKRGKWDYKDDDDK

Row | SMILES | IC50 (KAT-8) | IC50 (KAT-5) | IC50 (KAT-6A) | IC50 (KAT-7) | IC50 (KAT-8; Table 6, comparative compounds) | IC50 (KAT-5; Table 6, comparative compounds) | IC50 (KAT-6A; Table 6, comparative compounds) | IC50 (KAT-7; Table 6, comparative compounds)
1 | CC(=O)N[C@H]1C[C@H](CS(=O)(=O)NNC(=O)c2cc(-c3cn(C)cn3)cc(Cl)c2F)C1 [Compound I-125] | 10 to 50 µM | 10 to 50 µM | 10 to 50 µM | < 10 µM | – | – | – | –
2 | Cn1cnc(-c2cc(Cl)c(F)c(C(=O)NNS(=O)(=O)C[C@H]3CC[C@H](NC(=O)Cc4cccnc4)CC3)c2)c1 [Compound I-258] | 10 to 50 µM | < 10 µM | < 10 µM | < 10 µM | – | – | – | –
3 | CN[C@H]1CC[C@H](CS(=O)(=O)NNC(=O)c2cc(-c3cn(C)cn3)cc(Cl)c2F)CC1 [Compound I-337] | 10 to 50 µM | 10 to 50 µM | 10 to 50 µM | < 10 µM | – | – | – | –
4 | O=C(NNS(=O)(=O)CC1CCCNC1)c1cc(-c2ccccc2)cc(Cl)c1F (centres unmarked) [A, reference compound] | – | – | – | – | > 100 µM | 10 to 50 µM | 10 to 50 µM | 50 to 100 µM
5 | CNC(=O)Cn1nc(-c2cc(Cl)c(F)c(C(=O)NNS(=O)(=O)CC3CCCCC3)c2)cc1C [Compound I-311] | 10 to 50 µM | < 10 µM | 10 to 50 µM | < 10 µM | – | – | – | –
6 | Cn1cnc(-c2cc(Cl)c(F)c(C(=O)NNS(=O)(=O)C[C@@H]3CCC[C@@H](NC(=O)OC(C)(C)C)C3)c2)c1 [Compound I-333] | 10 to 50 µM | < 10 µM | < 10 µM | < 10 µM | – | – | – | –
7 | CCNC(=O)N1CCC(CS(=O)(=O)NNC(=O)c2cc(-c3cn(C)cn3)cc(Cl)c2F)C1 (centres unmarked) [Compound I-64] | 10 to 50 µM | < 10 µM | < 10 µM | < 10 µM | – | – | – | –
8 | Cn1cnc(-c2cc(Cl)c(F)c(C(=O)NNS(=O)(=O)C[C@H]3CCC[C@@H](N)C3)c2)c1 [Compound I-253] | 10 to 50 µM | 10 to 50 µM | 10 to 50 µM | < 10 µM | – | – | – | –
9 | Cn1cnc(-c2cc(Cl)c(F)c(C(=O)NNS(=O)(=O)c3cnn(CCOCc4ccccc4)c3)c2)c1 [Compound I-361] | 10 to 50 µM | 10 to 50 µM | 10 to 50 µM | < 10 µM | – | – | – | –
10 | Cn1ccc(-c2cc(Cl)c(F)c(C(=O)NNS(=O)(=O)CC3CCOCC3)c2)n1 [Compound I-6] | > 100 µM | 10 to 50 µM | < 10 µM | 10 to 50 µM | – | – | – | –
11 | Cn1cnc(-c2cc(Cl)c(F)c(C(=O)NNS(=O)(=O)CC3CCC(NC(=O)N4CCCC4)C3)c2)c1 (centres unmarked) [Compound I-346] | 10 to 50 µM | < 10 µM | < 10 µM | < 10 µM | – | – | – | –
12 | C[C@@H]1CNC[C@H]1CS(=O)(=O)NNC(=O)c1cc(-c2cn(C)cn2)cc(Cl)c1F [Compound I-263] | 10 to 50 µM | 10 to 50 µM | 10 to 50 µM | – | – | – | – | –
13 | CC(=O)NC1CCCC(CS(=O)(=O)NNC(=O)c2cc(-c3cn(C)cn3)cc(Cl)c2F)C1 (centres unmarked) [Compound I-99] | 10 to 50 µM | < 10 µM | – | < 10 µM | – | – | – | –
14 | CC(=O)N1[C@H]2CC[C@@H](CS(=O)(=O)NNC(=O)c3cc(-c4cn(C)cn4)cc(Cl)c3F)[C@@H]1CC2 [Compound I-277] | 10 to 50 µM | < 10 µM | < 10 µM | – | – | – | – | –
15 | CN(CCOc1ccc(S(=O)(=O)NNC(=O)c2cc(-c3cn(C)cn3)cc(Cl)c2F)cc1)C(=O)OC(C)(C)C [Compound I-394] | > 100 µM | 10 to 50 µM | 10 to 50 µM | – | – | – | – | –
16 | Cn1cnc(-c2cc(Cl)c(F)c(C(=O)NNS(=O)(=O)C[C@H]3CC[C@H]4CC[C@@H]3N4C(=O)OC(C)(C)C)c2)c1 [Compound I-259] | 10 to 50 µM | < 10 µM | 10 to 50 µM | – | – | – | – | –
17 | CCNC(=O)N1C[C@H](CS(=O)(=O)NNC(=O)c2cc(-c3cn(C)cn3)cc(Cl)c2F)[C@@H](C)C1 [Compound I-271] | 10 to 50 µM | 10 to 50 µM | 10 to 50 µM | – | – | – | – | –
18 | CN(C(=O)OC(C)(C)C)C1CCCC(CS(=O)(=O)NNC(=O)c2cc(-c3cn(C)cn3)cc(Cl)c2F)C1 (centres unmarked) [Compound I-274] | 10 to 50 µM | < 10 µM | < 10 µM | – | – | – | – | –
19 | Cn1cnc(-c2cc(Cl)c(F)c(C(=O)NNS(=O)(=O)CC3CCOC3)c2)c1 (centres unmarked) [Compound I-272] | 10 to 50 µM | < 10 µM | < 10 µM | – | – | – | – | –
20 | Cn1cnc(-c2cc(Cl)c(F)c(C(=O)NNS(=O)(=O)C[C@H]3CC[C@H](NC(=O)c4ccncc4)CC3)c2)c1 [Compound I-269] | 10 to 50 µM | < 10 µM | < 10 µM | – | – | – | – | –
21 | COC1CCC(CS(=O)(=O)NNC(=O)c2cc(-c3cn(C)cn3)cc(Cl)c2F)CC1 (centres unmarked) [Compound I-278] | 10 to 50 µM | < 10 µM | < 10 µM | – | – | – | – | –
22 | Cn1cnc(-c2cc(Cl)c(F)c(C(=O)NNS(=O)(=O)CC3CCCCO3)c2)c1 (centres unmarked) [Compound I-279] | 10 to 50 µM | < 10 µM | < 10 µM | – | – | – | – | –
23 | Cn1cnc(-c2cc(Cl)c(F)c(C(=O)NNS(=O)(=O)CC3CCCO3)c2)c1 (centres unmarked) [Compound I-276] | 10 to 50 µM | < 10 µM | < 10 µM | – | – | – | – | –

Further lines, results first:

Row | IC50 (KAT-8) | IC50 (KAT-5) | IC50 (KAT-6A) | IC50 (KAT-7) | IC50 (KAT-8; Table 6, comparative compounds) | IC50 (KAT-5; Table 6, comparative compounds) | IC50 (KAT-6A; Table 6, comparative compounds) | IC50 (KAT-7; Table 6, comparative compounds) | SMILES
24 | 10 to 50 µM | 10 to 50 µM | 10 to 50 µM | < 10 µM | – | – | – | – | Cn1cnc(-c2cc(Cl)c(F)c(C(=O)NNS(=O)(=O)CC(=O)N3CCCC3)c2)c1 [Compound I-328]
25 | > 100 µM | > 100 µM | > 100 µM | > 100 µM | – | – | – | – | Cc1nn(C)c(C)c1-c1cc(Cl)c(F)c(C(=O)NNS(=O)(=O)CC2CCOCC2)c1 [Compound I-58]
26 | > 100 µM | 10 to 50 µM | > 100 µM | < 10 µM | – | – | – | – | Cc1cc(-c2cnn(C)c2)cc(C(=O)NNS(=O)(=O)C2CCCCC2)c1F [Compound I-156]
27 | > 100 µM | > 100 µM | > 100 µM | > 100 µM | – | – | – | – | Cc1cn(-c2cc(Cl)c(F)c(C(=O)NNS(=O)(=O)CC3CCOCC3)c2)cn1 [Compound I-49]
28 | – | – | – | – | > 100 µM | 10 to 50 µM | > 100 µM | > 100 µM | Cc1cc(-c2ccccc2)cc(C(=O)NNS(=O)(=O)CC2CCCNC2)c1F (centres unmarked) [D, reference compound]
29 | 10 to 50 µM | 10 to 50 µM | 10 to 50 µM | < 10 µM | – | – | – | – | Cn1cnc(-c2cc(F)c(F)c(C(=O)NNS(=O)(=O)CC3CCOCC3)c2)c1 [Compound I-150]
30 | 10 to 50 µM | < 10 µM | < 10 µM | – | – | – | – | – | Cn1cnc(-c2cc(Cl)c(F)c(C(=O)NNS(=O)(=O)CC3CCC(C)(C)CC3)c2)c1 [Compound I-396]
31 | > 100 µM | < 10 µM | – | < 10 µM | – | – | – | – | Cc1c(-c2cc(Cl)c(F)c(C(=O)NNS(=O)(=O)CC3CCCCC3)c2)ncn1C [Compound I-38]
32 | 10 to 50 µM | < 10 µM | < 10 µM | – | – | – | – | – | Cn1cnc(-c2cc(Cl)c(F)c(C(=O)NNS(=O)(=O)CC34CC5CC(CC(C5)C3)C4)c2)c1 [Compound I-275]
33 | 10 to 50 µM | < 10 µM | < 10 µM | – | – | – | – | – | Cn1cnc(-c2cc(Cl)c(F)c(C(=O)NNS(=O)(=O)CC3CCCOC3)c2)c1 (centres unmarked) [Compound I-273]
34 | 50 to 100 µM | < 10 µM | < 10 µM | – | – | – | – | – | Cn1cnc(-c2cc(Cl)c(F)c(C(=O)NNS(=O)(=O)c3cccc(O)n3)c2)c1 [Compound I-391]
35 | > 100 µM | 10 to 50 µM | 10 to 50 µM | – | – | – | – | – | CNC1CC(CS(=O)(=O)NNC(=O)c2cc(-c3cn(C)cn3)cc(Cl)c2F)C1 (centres unmarked) [Compound I-395]
36 | 10 to 50 µM | < 10 µM | – | < 10 µM | – | – | – | – | CC(C)S(=O)(=O)N1CCCC(CS(=O)(=O)NNC(=O)c2cc(-c3cn(C)cn3)cc(Cl)c2F)C1 (centres unmarked) [Compound I-98]
